Results on three compounds are retold here after article PMC4242082, “Mechanistic determinants of the directionality and energetics of active export by a heterodimeric ABC transporter” (Nature Communications, 2014).

By Kd is commonly meant the free concentration of one partner at which half of the binding sites on the other are occupied at equilibrium, for simple one-to-one binding. A high value points to weaker binding. One may read the Ki as the dissociation constant of the complex between target and ligand, obtained from inhibition or displacement. As usually defined, the IC50 is the point on the concentration scale where inhibition reaches its midpoint.

Where a chain is given by its changes, count along the chain named. Where two headings read alike, the source gives them in different places.

In experiment [1] the target is T1, rat TAP1-NBD (Rattus norvegicus, UniProt P36370).
T1 construct: monomer-homodimer equilibrium
T1 sequence (P36370 465-725): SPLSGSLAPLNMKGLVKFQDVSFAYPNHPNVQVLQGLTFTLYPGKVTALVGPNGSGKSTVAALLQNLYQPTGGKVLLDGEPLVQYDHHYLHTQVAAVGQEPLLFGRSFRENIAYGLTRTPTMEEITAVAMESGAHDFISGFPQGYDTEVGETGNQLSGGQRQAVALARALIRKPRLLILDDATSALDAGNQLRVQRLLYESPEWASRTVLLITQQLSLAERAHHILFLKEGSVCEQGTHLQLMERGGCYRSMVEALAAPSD
As to the kind of experiment: fluorescence polarization, direct titration. In kind it is binding. The settings on record: pH 8.0, 20 mM Tris, 50 mM NaCl, 1 mM dithiothreitol; labelled compound. The source says: fluorescence polarization, direct titration on rat TAP1-NBD | series of eight twofold dilutions in assay buffer
A general note: Polarisation of emitted light reports the rotation of a fluorescent probe.

Experiment [2] addresses T1, rat TAP1-NBD. Briefly: fluorescence polarization competition with ATP-Bodipy. In kind it is binding. The source says:
(§1) fluorescence polarization competition with ATP-Bodipy on rat TAP1-NBD | affinities for ATP and ADP of isolated wt and D-loop (D651A) mutant rat TAP1-NBD

The target of experiment [3] is T2, rat TAP1-NBD (Rattus norvegicus, UniProt P36370, D651A).
T2 construct: monomer-homodimer equilibrium
T2 sequence (P36370 465-725 D651A): T1 sequence (P36370 465-725) with D187A
The description is as above. The class given is binding.
Description: as §1

The target of experiment [4] is T3, TAP (TAP1/TAP2 complex; wt TAP) (Homo sapiens, UniProt Q03518+Q03519).
T3 construct: full-length heterodimer from Sf9 insect cells (baculovirus), purified and reconstituted in proteoliposomes, or in membranes
T3 sequence (Q03518 1-748): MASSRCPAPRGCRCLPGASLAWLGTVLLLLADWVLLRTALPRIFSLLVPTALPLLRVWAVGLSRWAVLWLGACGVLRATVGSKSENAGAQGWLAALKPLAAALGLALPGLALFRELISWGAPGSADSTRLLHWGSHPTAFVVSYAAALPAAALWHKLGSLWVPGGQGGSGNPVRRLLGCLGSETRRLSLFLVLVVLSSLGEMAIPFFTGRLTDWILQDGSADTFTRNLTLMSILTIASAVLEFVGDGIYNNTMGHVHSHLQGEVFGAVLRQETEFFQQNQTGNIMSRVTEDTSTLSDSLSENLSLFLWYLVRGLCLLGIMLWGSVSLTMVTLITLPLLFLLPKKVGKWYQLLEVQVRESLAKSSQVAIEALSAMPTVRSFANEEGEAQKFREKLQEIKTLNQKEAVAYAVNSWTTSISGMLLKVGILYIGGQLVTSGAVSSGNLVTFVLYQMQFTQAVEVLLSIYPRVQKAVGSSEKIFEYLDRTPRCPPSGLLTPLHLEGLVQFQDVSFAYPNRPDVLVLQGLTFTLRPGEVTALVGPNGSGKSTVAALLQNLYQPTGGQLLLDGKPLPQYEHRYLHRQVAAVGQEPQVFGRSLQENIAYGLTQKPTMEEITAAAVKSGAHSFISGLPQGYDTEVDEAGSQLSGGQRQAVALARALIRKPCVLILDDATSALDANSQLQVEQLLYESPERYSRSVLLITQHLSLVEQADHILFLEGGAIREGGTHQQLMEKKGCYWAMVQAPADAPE
T3 sequence (Q03519 1-686): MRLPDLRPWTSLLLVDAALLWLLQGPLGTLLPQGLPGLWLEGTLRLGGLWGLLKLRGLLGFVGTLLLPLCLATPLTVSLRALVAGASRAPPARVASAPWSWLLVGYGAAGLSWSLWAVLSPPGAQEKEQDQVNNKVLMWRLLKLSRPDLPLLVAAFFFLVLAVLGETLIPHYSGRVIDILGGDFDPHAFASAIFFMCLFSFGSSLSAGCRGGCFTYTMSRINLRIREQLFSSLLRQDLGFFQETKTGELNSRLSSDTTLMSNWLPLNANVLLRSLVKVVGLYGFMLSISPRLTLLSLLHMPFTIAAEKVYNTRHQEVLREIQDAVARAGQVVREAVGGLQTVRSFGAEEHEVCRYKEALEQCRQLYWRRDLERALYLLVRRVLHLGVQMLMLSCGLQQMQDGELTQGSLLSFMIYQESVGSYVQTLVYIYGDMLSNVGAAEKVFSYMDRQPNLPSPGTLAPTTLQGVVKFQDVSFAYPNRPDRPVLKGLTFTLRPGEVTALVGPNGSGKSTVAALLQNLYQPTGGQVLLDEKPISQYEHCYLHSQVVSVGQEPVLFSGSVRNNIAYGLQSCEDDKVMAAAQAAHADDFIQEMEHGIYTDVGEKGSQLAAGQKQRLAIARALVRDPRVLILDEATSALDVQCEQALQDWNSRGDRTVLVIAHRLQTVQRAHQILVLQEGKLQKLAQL
Briefly: ATP binding affinity. To be noted: type of constant not stated in main text.

Experiment [5] deals with T4, rat TAP1-NBD (Rattus norvegicus, UniProt P36370, D645N/D651A).
T4 construct: monomer-homodimer equilibrium
T4 sequence (P36370 465-725 D645N/D651A): T1 sequence (P36370 465-725) with D181N, D187A
As to the kind of experiment: X-ray crystal structure, […] Å. The class given is binding. To be noted: crystals pH 8.0; canonical NBD dimer with two ATP.

Experiment [6] deals with T3, TAP (TAP1/TAP2 complex; wt TAP). Briefly: biochemical. Details: species or system Sf9; ATP-agarose competition binding assay with TAP-containing Sf9 membranes. To be noted: read-out: ATP binding IC50.
For experiment [7], the target named is T1, rat TAP1-NBD. Briefly: biochemical. Further details: fluorescence polarization competition of unlabelled nucleotide against 1 uM ATP-Bodipy, TAP1-NBD. The procedure:
Nucleotide-stripped TAP1-NBD samples were re-concentrated to ~100 μM, and used to make a series of eight twofold dilutions in assay buffer (20 mM Tris, pH 8.0, 50 mM NaCl, 1 mM dithiothreitol) with 1 μM ATP-Bodipy (Invitrogen). A background control contained no protein. For competitive binding experiments, NBDs (25 μM final) were mixed with 1 μM ATP-Bodipy and a series of ten twofold dilutions of unlabelled nucleotide, with samples with no labelled nucleotide serving as background control. Fluorescence polarization was measured in FlexStation 3 with excitation at 488 nm. All samples were run two or three times in triplicates. Data were analysed with Origin (OriginLab Corp.). Binding affinities of unlabelled nucleotides (Kis) were obtained using Ki=IC50/([L]/Kd+1). To explore the molecular mechanism of antigen translocation, wt TAP and the D674A/wt complex were purified and functionally reconstituted in proteoliposomes. […] Furthermore, the Michaelis–Menten kinetics for peptide transport by wt TAP and D674A/wt are equal (Fig. 2c, Supplementary Fig. 2c and Supplementary Table 3), confirming that the affinity for ATP and peptides is not affected by the D-loop substitution.

The target in experiment [8] is T5, TAP with tapasin-TAP2 fusion (Tsn-TAP) (Homo sapiens, UniProt Q03518+Q03519).
T5 construct: gene TAP1; purified heterodimer from Sf9 cells in digitonin; TAP2 fused N-terminally to tapasin (TAPBP) only to separate the subunits on the gel
T5 sequence (Q03518 1-748): T3 sequence (Q03518 1-748)
T5 sequence (Q03519 1-686): T3 sequence (Q03519 1-686)
T5 sequence (O15533 21-448 partner): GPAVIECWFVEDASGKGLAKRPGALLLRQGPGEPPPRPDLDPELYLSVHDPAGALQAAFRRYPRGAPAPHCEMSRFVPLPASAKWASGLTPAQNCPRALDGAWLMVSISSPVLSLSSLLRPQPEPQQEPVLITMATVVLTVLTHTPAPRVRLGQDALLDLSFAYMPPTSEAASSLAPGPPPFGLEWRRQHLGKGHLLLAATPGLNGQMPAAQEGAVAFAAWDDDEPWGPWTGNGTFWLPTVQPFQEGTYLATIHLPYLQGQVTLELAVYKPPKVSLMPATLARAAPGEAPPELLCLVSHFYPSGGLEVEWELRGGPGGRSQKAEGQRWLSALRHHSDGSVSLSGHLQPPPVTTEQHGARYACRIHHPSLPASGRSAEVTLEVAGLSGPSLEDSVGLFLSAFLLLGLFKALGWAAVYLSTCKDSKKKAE
Briefly: competition with 8-azido-[α-32P]ATP photo-crosslinking. The class given is binding. The settings on record: 200-fold excess, 1 mM MgCl2, pH 7.4, 4 °C.

Regarding ATP-Bodipy, binding on rat TAP1-NBD [1] was put at a Kd of 6.1 ± 1.7 µM.

In the case of `Nc1ncnc2c1ncn2[C@@H]1O[C@H](COP(=O)(O)OP(=O)(O)OP(=O)(O)O)[C@@H](O)[C@H]1O` [ATP], the inhibition constant (Ki) was 119 ± 13 µM on rat TAP1-NBD [2] and 148 ± 9 µM at rat TAP1-NBD [3]. Further, the affinity result in experiment [4] was “all mutants displayed similar affinity for peptides and ATP as compared with wt TAP”. On rat TAP1-NBD [5], the “X-ray crystal structure, 2.65 Å” value was “the two ATPs and their binding sites are essentially unaffected by this structural re-organization”. Moreover, the IC50 in experiment [6] came out at 10 ± 1 µM; on rat TAP1-NBD [7] (read-out: IC50 (µM) ATP), 139 ± 30 µM.

`Nc1ncnc2c1ncn2[C@@H]1O[C@H](COP(=O)(O)OP(=O)(O)O)[C@@H](O)[C@H]1O` [ADP]: the Ki at rat TAP1-NBD [2] came to 59 ± 2 µM; on rat TAP1-NBD [3], 59 ± 3 µM. Also, the “competition with 8-azido-[α-32P]ATP photo-crosslinking” value in experiment [8] was “wt and D674A/wt TAP showed the same binding properties for ATP, ADP (Fig. 2b)”. Moreover, the IC50 on rat TAP1-NBD [7] (read-out: IC50 (µM) ADP) was 69 ± 14 µM.
